Reference: US4792555A, “Phospholipase A2 inhibitors” (American Home Products Corporation, priority 1987, dated 1988)
Structures can show the parent of a compound that is named as a salt. Where two headings read alike, the source gives them in different places.

What was measured:
human platelet PLA2 = target: T1, human platelet PLA2 (Homo sapiens, UniProt P14555); test: Inhibition of human platelet PLA2 (hydrolysis of [1-14C]oleic acid labelled E. coli membrane phospholipids) in vitro; type: biochemical; settings: for IC50: standard drugs
T1 sequence (P14555 21-144): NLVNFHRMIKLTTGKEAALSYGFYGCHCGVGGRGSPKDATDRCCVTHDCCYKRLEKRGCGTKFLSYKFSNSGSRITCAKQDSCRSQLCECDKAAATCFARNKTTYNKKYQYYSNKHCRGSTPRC
Protocol: The ability of the compounds to inhibit the activity of PLA2 enzyme is measured in the following in vitro assay.
The assay measures the hydrolysis of E. coli membrane phospholipids and the release of free [1-^14 C] oleic acid from the C-2 position of phospholipids by human platelet PLA2. To ice cold 15×100 mm test tubes, the following additions are made: 2,5×10 E. coli (equivalent to 4 nmol phospholipid), 5 mM Ca^++, 100 mM Tris buffer (pH=7.4), 100 μg platelet extract (or an amount to produce 20-30% hydrolysis), drug or vehicle. The final volume is adjusted to 500 μl with water. Mixtures are vortexed and incubated for 30 minutes in a shaking water bath. It should be noted that preliminary experiments are always performed with each new batch of platelets to establish linear hydrolysis of phospholipids with regard to protein concentration and time. The enzyme reaction is stopped by the addition of 3 volumes of chloroform to each tube which is vortexed and then centrifuged for 5 minutes at 500 g. The lower chloroform/methanol phase is removed and evaporated under N. The dried residue is redissolved in 50 μl CHCl3 :CH3 OH (9:1 v/v), spotted on aluminum-backed chromatographic plates and developed in a solvent system consisting of petroleum ether:diethyl ether:acetic acid (80:20:1). Free fatty acid ([1-^14 C]oleic acid) and [1-^14 C]oleic acid labeled phospholipids are visualized with exposure to iodine vapors. Radioactive areas that cochromatographed with authentic oleic acid and phospholipid standards are cut out and placed in a scintillation vial. One ml CH3 OH and 10 ml Hydrofluor are added to each cut strip and radioactivity is determined by liquid scintillation counting.
The percent hydrolysis is calculated by the following equation: [formula]

[1] = test system: 12-O-tetradecanoylphorbol acetate (TPA)-induced murine ear edema; test: TPA-induced murine ear edema test; type: in vivo, Swiss Webster female mice; settings: oral, 30 minutes after TPA; 4 μg TPA/ear; measured 4 hours after TPA; dose in mg/kg not given
Protocol: The ability of the compounds of the invention to inhibit PLA2 is further examined in the in vivo 12-O-tetradecanoylphorbol acetate (TPA)-induced murine ear edema test. According to this test, Swiss Webster female mice (Buckshire), approximately 8 weeks old, are placed into plastic boxes in groups of six. Eight groups of mice receive TPA topically on the right ear. TPA is dissolved in acetone at a concentration of […]. The phlogistics are applied to the right ear by the means of an automatic pipet. Volumes of 10 μl are applied to the inner and outer surfaces of the ear. Each mouse receives 4 μg/ear TPA. The left ear (control) receives acetone delivered in the same manner. […] Measurements are taken with Oditest calipers, 0-10 mm with 0.01 graduations. The right and left ears are measured 4 hours after TPA-induced inflammation. The difference between right and left ear thickness is calculated and the significance is determined by a one way analysis of variance with Dunnett's comparisons to control (P=0.05). Drug effects are expressed as a percent change from control values: [formula]

[2] = test system: rat carrageenan paw edema; test: Rat carrageenan paw edema assay; type: in vivo, male Sprague-Dawley rats; settings: for % Inhibition (paw edema): 100 mg/kg peroral, 1 hour prior to carrageenan, paw read at 3 hours
Protocol: The compounds of the invention are further tested in the rat carrageenan paw edema assay to determine their ability to inhibit the acute inflammatory response.
This assay is carried out as follows:
140-180 gm male Sprague-Dawley rats, in groups of 6 animals are injected subcutaneously in the right paw with 0.1 ml of 1% carrageenan at zero time. Mercury plethysmographic readings (ml) of the paw are made at zero time and 3 hours later. Test compounds are suspended or dissolved in 0.5% methylcellulose and given perorally 1 hour prior to carrageenan administration.
The increase in paw volume (edema in ml.) produced by the carrageenan is measured. […] Unpaired Student's t-test used to determine statistical significance.

[3] = test system: synthesis of arachidonic acid, PGE2 and LTC4 by murine peritoneal macrophages; test: Inhibition of synthesis of arachidonic acid, PGE2 and LTC4 by murine peritoneal macrophages; type: cell-based, CD-1 mice; settings: Mus musculus, Peritoneal macrophage, 2 hours
Protocol: The ability of the compounds of the invention to inhibit both leukotriene and prostaglandin synthesis is examined in an assay which measures the ability of the compounds of the invention to inhibit the synthesis of arachidonic acid, PGE2 and LTC4 by murine peritoneal macrophages.
The assay is carried out as follows:
Macrophages are removed from the peritoneal cavity of 55-57 day old CD-1 mice (killed by CO2 asphyxiation) by peritoneal lavage and centrifuged at 400×g for ten minutes. The cells are resuspended in Medium 199 and 4×10^6 cells are allowed to adhere on 35×10 mm Petri dishes for 1.5 hours at 37° C. in an atmosphere of 95% air and 5% CO2. The cell monolayers are washed and incubated overnight in Medium 199 supplemented with 10% heat inactivated bovine serum containing 1μCi[^14 C]-arachidonic acid, or in the absence of ^14 C-arachidonic acid when the supernatant is to be assayed by radioimmunoassay (RIA). The labeled cells are then washed and incubated at 37° C. for 2 hours in Medium 199 with the prostaglandin stimuli, zymosan, or 12-o-tetradecanoyl-phorbol-13-acetate (TPA) and in the presence or absence of test compounds. Following incubation, the supernatant is removed and subjected to radioimmunoassay in order to determine the percent inhibition of arachidonic acid, prostaglandin E2 and leukotriene C4 by the test compounds.

[4] = pH 7.4, read-out: % Inhibition of PLA2
[5] = at 100 μM, human platelet PLA2, 30 minutes, pH 7.4, read-out: % Inhibition of PLA2
[6] = human platelet PLA2, 30 minutes, pH 7.4

inhibition at 100 µM (human platelet PLA2; [5]) | Compound | inhibition at 100 µM (human platelet PLA2; [4]) | further results
 | N[C@@H](Cc1c[nH]c2ccccc12)C(=O)NC1CCCCCCCCCCC1 [Example 6, (S)-α-Amino-N-cyclododecyl-1H-indole-3-propanamide, hydrochloride] | 52% | 
64% | CCCC[C@H](NC(=O)CCCCCCc1ccccc1)C(=O)N1CC(C)NC(C)C1 (stereo partly drawn) [Example 3, N-[(S)-1-Butyl-2-(3,5-dimethyl-1-piperazinyl)-2-oxoethyl]benzeneheptanamide] |  | % Change from Control (mouse ear edema) [1]: -39%
 | N[C@@H](CC(=O)OCc1ccccc1)C(=O)NC1CCCCCCCCCCC1 [Example 7, (S)-3-Amino-4-(cyclododecylamino)-4-oxobutanoic acid phenylmethyl ester, hydrochloride] | 60% | 
24% | O=C(C1CCCCN1)N1CCC2CCCCC2C1 (centres unmarked) [Example 5f, Decahydro-2-(2-piperidininylcarbonyl)isoquinoline, hydrochloride] |  | 
52% | CCCCC(NC(=O)Cc1ccc(-c2ccccc2)cc1)C(=O)N1CC(C)NC(C)C1 (centres unmarked) [Example 4, N-[1-[(3,5-Dimethyl-1-piperazinyl)carbonyl]pentyl][1,1'-biphenyl]-4-acetamide] |  | 
 | CCCC[C@H](N)C(=O)N1CCC(C)CC(C)(C)C1 (stereo partly drawn) [Example 2b, 1-[(S)-2-Amino-1-oxohexyl]hexahydro-3,3,5-trimethyl-1H-azepine, hydrochloride] | 25% | 
 | Gold Sodium Thiomalate [reference compound] |  | IC50 (human platelet PLA2; [6]): 43 µM
 | COc1ccc2c(c1)c(CC(=O)O)c(C)n2C(=O)c1ccc(Cl)cc1 [Indomethacin, reference compound] |  | IC50 (human platelet PLA2; [6]): 48 µM; ED50 ([2]; Rattus norvegicus, po, 3 h, read-out: Oral ED50 (95% C.L.)): 3.7 mg/kg
 | O=C(NC1CCCCCCCCCCC1)C1CCCCN1 (centres unmarked) [Example 5d, N-Cyclododecyl-2-piperidinecarboxamide, hydrochloride] | 45% | 
92% | CCCCCCCCCCCCCCCCNC(=O)[C@@H]1CCCN1 [Example 5a, N-(S)-Hexadecyl-2-pyrrolidinecarboxamide] |  | IC50 ([3]; arachidonic acid, zymosan or TPA stimulus, read-out: IC50 AA): 19.6 µM; IC50 ([3]; leukotriene C4, zymosan or TPA stimulus, read-out: IC50 LTC4): 7.6 µM; IC50 ([3]; prostaglandin E2, zymosan or TPA stimulus, read-out: IC50 PGE2): 13.7 µM; % Inhibition (paw edema) [2]: 26%; % Change from Control (mouse ear edema) [1]: -53%
98% | CCCCCCCCCCCCCCCCNC(=O)[C@H]1CCCN1 [Example 5b, N-(R)-Hexadecyl-2-pyrrolidinecarboxamide] |  | % Inhibition (paw edema) [2]: 26%
24% | CCCC[C@H](N)C(=O)N1CCC2CCCCC2C1 (stereo partly drawn) [Example 2c, 2-[(S)-2-Amino-1-oxohexyl]decahydroisoquinoline, hydrochloride hemihydrate] |  | 
 | CCCCC(N)C(=O)NC1CCCCCCCCCCC1.Cl (centres unmarked) [Example 2a, 2-Amino-N-cyclododecylhexanamide, hydrochloride] | 76% | % Inhibition (paw edema) [2]: 22%; % Change from Control (mouse ear edema) [1]: -60%
 | CCCCCCCCCCCCCCCCNC(=O)C(N)CCCC.Cl (centres unmarked) [Example 1, 2-Amino-N-hexadecylhexanamide, hydrochloride] | 99% | % Change from Control (mouse ear edema) [1]: -25%
 | O=C(NC1CCCCCCCCCCC1)C1CCCN1 (centres unmarked) [Example 5c, N-Cyclododecyl-2-pyrrolidinecarboxamide, hydrochloride] | 58% | 
